Assay results: patent publication EP4094762A1, “TREATMENT OF NEUROLOGICAL INDICATIONS” (UCL Business Ltd, priority 2021, dated 2022)

Target: T1, P2Y1 receptor (Homo sapiens, UniProt P47900)
T1 construct: expressed in transfected cells
Assay: Cell based HTRF assay measuring IP1 accumulation; antagonism of the P2Y1 agonist MRS2365
Conditions: rounded to nearest whole number; read-out: IC50 IP1
Procedure: IC50 values were determined using a cell based assay in stably transfected cells overexpressing the P2Y1 receptor. The assay system is a high throughput […] assay measuring accumulation of the intracellular messenger inositol monophosphate (IP1), generated intracellularly following activation of P2Y1.
P2Y1 overexpressing cells were maintained in T175 flasks. The day before the assay, these cells were split and 20µl cell suspension transferred to each well of white 384-well assay plates at a cell density of 0.5x10^6 cells/mL. Plates were pulse centrifuged, then incubated overnight at 37°C / 5% CO2 prior to assay.
On day of assay, medium was removed from cells and replaced with stimulation buffer. […] Positive control antagonist curves with standard compounds were included on each plate. Plates were incubated with antagonists for 1 hour prior to addition of 5nM of the agonist MRS2365, dispensed using a Bravo liquid handler. Following agonist addition, plates were incubated for 60 minutes prior to assay. Both incubations were carried out at 37°C / 5% CO2.
For the assay, IP1 accumulation was quantified using the IPOne kit according to manufacturer's instructions. In short, a standard curve was prepared for IP1 quantification, and cells lysed using kit lysis buffer. Assay reagents were added to the lysates, and incubated for 1 hour at room temperature without spinning or shaking. Plates were analysed on a BMG Pherastar plate reader, and IP1 signal generated in cells interpolated from the standard curve.

T1 sequence (P47900 whole entry): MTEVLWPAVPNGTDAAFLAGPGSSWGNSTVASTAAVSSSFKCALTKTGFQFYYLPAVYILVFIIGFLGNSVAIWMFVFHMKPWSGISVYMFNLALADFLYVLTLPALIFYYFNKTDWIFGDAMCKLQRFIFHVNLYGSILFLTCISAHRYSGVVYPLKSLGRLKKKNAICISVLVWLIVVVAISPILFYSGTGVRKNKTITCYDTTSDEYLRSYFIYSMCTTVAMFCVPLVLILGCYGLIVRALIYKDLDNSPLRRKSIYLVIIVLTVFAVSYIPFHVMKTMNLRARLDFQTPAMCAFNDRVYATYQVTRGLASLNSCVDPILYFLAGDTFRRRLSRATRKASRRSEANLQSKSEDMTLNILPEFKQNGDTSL

IC50 [µM]	Compound
0.236	CC(C)(C)c1ccccc1Oc1ncncc1NC(=O)Nc1ccc(OC(F)(F)F)cc1 [S18]
0.514	CC(C)(C)c1ccccc1Oc1ncc(Br)cc1NC(=O)Nc1ccc(OC(F)(F)F)cc1 [S29]
7.12	CC(C)(O)c1ccccc1Oc1ncccc1NC(=O)Nc1ccc(OC(F)(F)F)cc1 [S77]
0.264	CC(C)(C)c1ccccc1Oc1ncc(C#N)cc1NC(=O)Nc1ccc(OC(F)(F)F)cc1 [S19]
9.68	CCOC(=O)c1nnc(NC(=O)Nc2cccnc2Oc2ccccc2C(C)(C)C)s1 [S86]
9.53	Cc1c(Oc2ncccc2NC(=O)Nc2ccc(OC(F)(F)F)cc2)cccc1-c1cccc(CN(C)C)c1 [S85]
2.86	O=C(Nc1ccc(OC(F)(F)F)cc1)Nc1cccnc1Oc1ccccc1 [S65]
1.97	Cc1ccc(C)c(Oc2ncccc2NC(=O)Nc2ccc(OC(F)(F)F)cc2)c1 [S55]
5.84	N#Cc1cccc(Oc2ncccc2NC(=O)Nc2ccc(OC(F)(F)F)cc2)c1 [S73]
4.94	Cc1ccccc1Oc1ncc(Br)cc1NC(=O)Nc1ccc(OC(F)(F)F)cc1 [S72]
2.51	N#Cc1cccc(-c2cccc(Oc3ncccc3NC(=O)Nc3ccc(OC(F)(F)F)cc3)c2)c1 [S63]
0.924	O=C(Nc1ccc(OC(F)(F)F)cc1)Nc1cccnc1Oc1cccc(OCc2ccccc2)c1 [S40]
3.35	C=Cc1cnc(Oc2ccccc2C)c(NC(=O)Nc2ccc(OC(F)(F)F)cc2)c1 [S67]
0.778	Cc1c(Oc2ncccc2NC(=O)Nc2ccc(OC(F)(F)F)cc2)cccc1-c1ccc2ccn(C)c2c1 [S37]
1.77	CC(C)(C)c1ccccc1Oc1nccc(O)c1NC(=O)Nc1ccccc1 [S54]
1.06	CC(C)(C)c1ccccc1Oc1ccsc1NC(=O)Nc1ccc(OC(F)(F)F)cc1 [S45]
0.925	O=C(Nc1ccc(OC(F)(F)F)cc1)Nc1cccnc1Oc1ccccc1Br [S41]
6	CC(c1ccccc1Oc1ncccc1NC(=O)Nc1ccc(OC(F)(F)F)cc1)N1CCCCC1 (stereo not drawn) [S74]

IC50 [µM]	Compound
7.58	CC(C)(C)c1ccccc1Oc1ncc(-c2ccccc2)cc1NC(=O)Nc1ccc(OC(F)(F)F)cc1 [S79]
0.513	Cc1c(Br)cccc1Oc1ncccc1NC(=O)Nc1ccc(OC(F)(F)F)cc1 [S28]
0.64	CC(C)(C)c1ccccc1Oc1ncccc1NC(=O)NCCCc1ccccc1 [S34]
0.574	CC(C)c1cccc(C(F)F)c1Oc1ncccc1NC(=O)Nc1ccc(OC(F)(F)F)cc1 [S30]
8.99	Cc1ccccc1Oc1ncc(NC2CCOCC2)cc1NC(=O)Nc1ccc(OC(F)(F)F)cc1 [S84]
0.209	CC(C)(C)c1ccccc1Oc1ncccc1NC(=O)Nc1nc2ccc(Cl)nc2s1 [S17]
1.1	Cc1cccc(Oc2ncccc2NC(=O)Nc2ccc(OC(F)(F)F)cc2)c1 [S47]
7.07	CC(C)(C)c1ccccc1Oc1ncccc1NC(=O)NC1CC2(C1)CN(CC(F)(F)F)C2 [S76]
0.124	O=C(Nc1ccc(OC(F)(F)F)cc1)Nc1cccnc1Oc1ccccc1S(F)(F)(F)(F)F [S10]
0.632	O=C(Nc1ccc(OC(F)(F)F)cc1)Nc1cccnc1Oc1ccccc1N1CCCCC1 [S33]
0.512	Cc1c(Oc2ncccc2NC(=O)Nc2ccc(OC(F)(F)F)cc2)cccc1-c1cccc(C#N)c1 [S27]
6.59	Cc1c(Oc2ncccc2NC(=O)Nc2ccc(OC(F)(F)F)cc2)cccc1S(C)(=O)=O [S75]
0.301	CC(C)(C)c1ccccc1Oc1ncccc1NC(=O)NCc1ccc(OC(F)(F)F)cc1 [S21]
2.14	Cc1c(Oc2ncccc2NC(=O)Nc2ccc(OC(F)(F)F)cc2)cccc1N1CC2CC1CO2 (stereo not drawn) [S59]
1.03	Cc1c(C#N)cccc1Oc1ncccc1NC(=O)Nc1ccc(OC(F)(F)F)cc1 [S44]
4.94	N#Cc1ccc(-c2cccc(Oc3ncccc3NC(=O)Nc3ccc(OC(F)(F)F)cc3)c2)cc1 [S71]
8.12	Cc1ccccc1Oc1ncncc1NC(=O)Nc1ccc(OC(F)(F)F)cc1 [S81]
1.99	Cc1ccccc1Oc1ncc(C(F)F)cc1NC(=O)Nc1ccc(OC(F)(F)F)cc1 [S57]
